Test results published in publication PMC4654880, “A comparison of the enzymatic properties of three recombinant isoforms of thrombolytic and antibacterial protein—Destabilase-Lysozyme from medicinal leech” (BMC Biochemistry, 2015).

Tests used:
Assay in all cases: isopeptidase assay, p-nitroaniline release, A405
Assay type in all cases: biochemical, Hirudo medicinalis
Conditions in all cases: pH 5.5, no NaCl (stated for activity), 37 °C
mlDL-Ds1 = tested on: T1, mlDL-Ds1
T1 construct: gene Ds-1; ~16 kDa band printed for Ds3; monomer by gel filtration; synthetic codon-optimised gene
From the text: isopeptidase assay, p-nitroaniline release, A405 on mlDL-Ds1

mlDL-Ds3 = tested on: T2, mlDL-Ds3
T2 construct: gene Ds-3; ~16 kDa; monomer by gel filtration; synthetic codon-optimised gene
From the text: isopeptidase assay, p-nitroaniline release, A405 on mlDL-Ds3

[1] = substrate: N[C@@H](CCC(=O)Nc1ccc([N+](=O)[O-])cc1)C(=O)O
From the text: isopeptidase assay, p-nitroaniline release, A405 on mlDL-Ds2

Row | Km (mlDL-Ds1) [µM] | Km (mlDL-Ds3) [µM] | Molecule | Km [1] [µM] | kcat [1] [s⁻¹]
1 | 40 | 20 | N[C@@H](CCC(=O)Nc1ccc([N+](=O)[O-])cc1)C(=O)O [L-γ-Glu-pNA] |  | 
2 |  |  | mlDL-Ds2 (Hirudo medicinalis) (protein, monomer by gel filtration; synthetic codon-optimised gene) QFTDSCLRCICKVEGCDSQIGKCGMDVGSLSCGPYQIKKPYWIDCGKPGGGYESCTKNKACSETCVRAYMKRYGTFCTGGRTPTCQDYARIHNGGPRGCKSSATVGYWNKVQKCLR | 50 | 0.08
